Source: patent publication US8980933B2, “Combretastatin analogs for use in the treatment of cancer” (Universitat Bayreuth, priority 2010, dated 2015)
Several values for one entry are separate records, joined by “and”; a condition that tells them apart may be missing. Equal entries are not always repeated. Entries after “also recorded” stand apart in the source; their conditions may differ.

Experiments:
HL-60 cells [1] = experiment: Mitochondrial membrane assay (JC-1), HL-60; assay type: cell-based, human; settings: 5 μM, red/green fluorescence ratio relative to untreated controls (100%), mean ± SD
Method: Values represent means of four independent experiments±standard deviation.
Changes in mitochondrial membrane potential were determined by the Mitochondrial Membrane Detection Kit (Stratagene, La Jolla, Calif., USA) according to the manufacturer's procedure. 72 h following treatment with 5 μM of the test compounds, cell samples were centrifuged at 400 g for 5 min. The pellets were resuspended in 500 μL diluted JC-1 solution, incubated at 37° C. for 15 min (HL-60) and then centrifuged again for 5 min at 400 g. After washing, the pellets were resuspended in 100 μL PBS and transferred into the wells of a black 96-well plate. The red (λex=585 nm, λem=590 nm) and green (λex=510 nm, λem=527 nm) fluorescence intensities were measured and their ratio was calculated.

HL-60 cells [2] = experiment: TUNEL assay; assay type: cell-based, human; settings: 10 μM; 16 h incubation
Solubility in water = assay type: physicochemical
[3] = tested on: 1411HP germ cell tumor xenografts; experiment: Nude mouse xenograft model of resistant 1411HP; assay type: in vivo; settings: for intra-tumoral hemorrhage (vascular disrupting effect): after 24 h
Method: In vivo antitumor activity and tolerability of compounds 5b and 6b of the invention were studied in a nude mouse xenograft model of the resistant germ cell tumor cell line 1411HP employing Athymic Nude-Fox n1 nu/nu mice (Harlan und Winkelmann, Borchen, Germany).
The tests were carried out as follows. The mice were kept under pathogen-free conditions, fed on an autoclaved standard diet and given free access to sterilized water. Each of five mice were administered a 150 μL phosphate buffered saline suspension of 10 million 1411HP cells into the left flank to generate subcutaneous xenograft tumors. After 4 weeks one group of two mice bearing 1411HP xenografts with a volume of ca. 1 cm^3 were injected i.p. with a single dose of 30 mg/kg body weight of 5b or 6b, respectively. Two mice in the second group with xenografts of a volume of ca. 2.5 cm^3 were injected i.p. with 20 mg/kg body weight of 5b on two consecutive days. Tumor volumes were calculated by caliper measurement using the formula a^2×b×0.5 with a being the short and b the long dimension. Body weight was assessed twice weekly and daily while under therapy.

[4] = tested on: H12.1 germ cell tumor, 1411HP germ cell tumor, A2780 ovarian carcinoma, HT29 colon carcinoma, DLD1 colon carcinoma, HCT8 colon carcinoma; experiment: SRB-cytotoxicity assay in a panel of tumor cell lines; assay type: cell-based, human; settings: H12.1, 1411HP
Method: (§1) The cytotoxic activity of 5b was established by standard colorimetric tests (SRB- and MTT-assays) against various tumor cell lines of different entities. For the SRB cytotoxicity assay, dose-response curves of the testicular germ cell tumor cell lines exposed to drug concentrations of 0.001-10 μM were established using the sulforhodamine-B (SRB) microcuiture colorimetric assay (Papazisis et al. Optimization of the sulforhodamine B colorimetric assay. J. Immunol. Methods 1997, 208, 151-158) and performed as described in: Müller et al. Failure of activation of caspase-9 induces a higher threshold for apoptosis and cisplatin resistance in testicular cancer. Cancer Res. 2003, 63, 513-521. Briefly, cells were seeded into 96-well plates on day 0, at cell densities previously determined to ensure exponential cell growth during the period of the experiment. On day 1, cells were treated with the drugs dissolved in medium to give the appropriate concentrations for indicated times and the percentage of surviving cells relative to untreated controls was determined on day 5.
The compounds 5b, 6b, 5f and 6f as well as the reference compound 25f (Wang et al.) were furthermore subjected to an SRB-cytotoxicity assay in a panel of tumor cell lines (H12.1 germ cell tumor, 1411HP germ cell tumor, A2780 ovarian carcinoma, HT29 colon carcinoma, DLD1 colon carcinoma, HCT8 colon carcinoma).

[5] = tested on: 1411HP germ cell tumor xenografts; experiment: Nude mouse xenograft model of resistant 1411HP; assay type: in vivo; settings: 60 mg/kg peroral; 24 h
518A2 cells = experiment: ROS generation, NBT assay, 518A2; assay type: cell-based, human; settings: 50 μM, relative to untreated controls (1%), mean ± SD
Method: (§2) The generation of reactive oxygen species (ROS) in tumor cells is a sign of cellular stress resulting in severe damage of cellular components such as DNA, lipids or proteins.
(§3) For the NBT assay, HL-60 cells (0.5·10^6/mL) were plated in 96-well tissue culture plates, and test compounds were added after 24 h incubation at 37° C. to achieve a final concentration of 50 μM. […] After removal of the cell medium by centrifugation, the cells in each well were resuspended in 100 μL 0.1% NBT, and the plates were placed in the incubator for 1 h. The reduced NBT was solubilized with 100 μl 2 M KOH and 130 μl DMSO for 30 min. The absorbance was measured for each well at 630 and 405 nm (background) using an ELISA plate reader. The adherent 518A2 cells (0.5·10^4/mL) were seeded out in 96-well tissue culture plates after trypsinization and incubation for 24 h at 37° C. to allow attachment, then treated similarly, only that the medium was removed prior to incubation with NBT for 4 h. All experiments were carried out in quadruplicate.

HL-60 cells [6] = experiment: ROS generation, NBT assay, HL-60; assay type: cell-based, human; settings: 50 μM, relative to untreated controls (1%), mean ± SD
Method: as §2, §3

HUVEC cells = experiment: Tube formation assay on matrigel; assay type: cell-based; settings: 7.72 ng/mL
Method: 35 μL of media:matrigel (1:1) were added into wells of a 96-well plate and incubated at 37° C. for 30 minutes. A trypsinized HUVEC cell suspension was set to 800.000 cells/mL. In another 96-well plate 25 μL of the compound stock were serially diluted with 25 μL of media. 25 μL of compound dilutions and 25 μL of cell suspension were added to the matrigel coated 96-well plate and the cells were incubated over night. As a negative control, methanol was used as in place of the compound dilutions.

[7] = tested on: H12.1 germ cell tumor cell line; experiment: SRB-cytotoxicity assay, H12.1; assay type: cell-based; settings: Homo sapiens, 96 h
Method: as §1

[8] = Solubility in physiological saline solution; assay type: physicochemical; settings: saline or isotonic, read-out: concentration achieved in physiological saline solution
Method: (§4) For the biotests compound 5b was dissolved in physiological saline solution. […] Customarily, in vivo applications to animals require only concentrations up to 3 mM. In order to check the chemical stability of such solutions of 5b they were stored for one month and subsequently used in in vitro tests alongside freshly prepared solutions of the same concentrations of 5b.

[9] = Chemical stability of solutions stored for one month, retested in vitro; assay type: physicochemical; settings: solution stored for one month vs freshly prepared; tubulin polymerization and SRB assays
Method: as §4

[10] = dual-dose i.p. 20 mg/kg on two consecutive days
[11] = single dose 30 mg/kg i.p., xenografts ca. 1 cm3

| Compound | Intact mitochondria [%] in HL-60 cells after 72 h (HL-60 cells [1]) | apoptotic (TUNEL-positive) cells (HL-60 cells [2]) | solubility (Solubility in water) | vascular disrupting effect ([3]; 1411HP xenograft model) | tumor response [3, 10] | tolerability ([3]; single dose 30 mg/kg i.p.) | intra-tumoral hemorrhage (vascular disrupting effect) [3, 11] | tumor response [3, 11] | in vitro cytotoxicity compared to 25f [4] | vascular disrupting effect after oral administration [5] | NBT Reduction [%] in 518A2 cells after 24 h (518A2 cells) | NBT Reduction [%] in HL-60 cells after 24 h (HL-60 cells [6]) | inhibition of tube formation (HUVEC cells) | IC50 [7] | duration of tumor volume stabilization ([3]; single dose application) | tolerability of repeated applications ([3]; third course of double dose 20 mg/kg i.p.) | tumor response to repeated applications ([3]; three double doses of 20 mg/kg i.p. (further on days 16/17 and 35/36)) | solubility [8] | chemical stability in solution (activity retained) [9] |
| --- | --- | --- | --- | --- | --- | --- | --- | --- | --- | --- | --- | --- | --- | --- | --- | --- | --- | --- | --- |
| COc1ccc(-c2c(-c3cc(Br)c(OC)c(OC)c3)ncn2C)cc1N [compound 6b, 1-methyl-5-(3-amino-4-methoxyphenyl)-4-(3-bromo-4,5-dimethoxyphenyl)-imidazole] | 66 ± 10% | about 60% | > 10000 µg/mL | vascular disrupting activity; also recorded: vascular disrupting in tumor xenografts | high antitumor activity to a similar extent as compound 5b | tolerated this treatment very well | strong intra-tumoral hemorrhage | transient swelling of the tumors, eventually followed by regression and slow regrowth | superior activity as compared to compound 25f | occurred to same extent as seen after i.p. application | 1.5 ± 0.2% | 3.8 ± 0.3% | pronounced inhibition of tube formation | – | – | – | – | – | – |
| COc1ccc(-c2c(-c3cc(Cl)c(OC)c(OC)c3)ncn2C)cc1N [compound 5b, 1-methyl-5-(3-amino-4-methoxyphenyl)-4-(3-chloro-4,5-dimethoxyphenyl)-imidazole] | – | about 60% | > 10000 µg/mL | – | dramatic tumor regressions, leading even to a stabilization in one case | tolerated this treatment very well | strong intra-tumoral hemorrhage | transient swelling of the tumors, eventually followed by regression and slow regrowth | superior activity as compared to compound 25f | – | 1.8 ± 0.2% | 4.4% and 4.4 ± 0.6% | did not yield a correspondingly strong inhibition at this concentration | 30 to 50 nM | stabilize the tumor volume for about two weeks | well tolerated | regressions and prolonged periods of stabilization following each of the three applications | ≥ 10 mM | No loss of activity; also recorded: persistence of efficacy; also recorded: high, unattenuated activity and efficacy |
